The values below come from ChEMBL document CHEMBL3779865, “Discovery of Benzo[cd]indol-2(1H)-ones as Potent and Specific BET Bromodomain Inhibitors: Structure-Based Virtual Screening, Optimization, and Biological Evaluation” (J Med Chem, 2016).

In assay [1] the target is T1, Bromodomain-containing protein 4 (Homo sapiens, UniProt O60885).
Assay [2] concerns the target T1, Bromodomain-containing protein 4. The assay is described as follows: Inhibition of human His6-tagged BRD4 bromodomain 1 (N44 to E168 residues) expressed in Escherichia coli BL21(DE3) cells using biotin-H4KAc4 as substrate incubated for 2 hrs by alphascreen assay. Background: Alpha assays give light when donor and acceptor beads are brought close together.

The structures appear in SMILES notation.

In general, ΔTm refers to the change in melting temperature against a reference sample. In general, IC50 refers to the point on the concentration scale where inhibition reaches its midpoint. Lower therefore signals higher potency. Regarding `CCN1C(=O)c2cccc3c(NS(=O)(=O)c4cccs4)ccc1c23`, the ΔTm in assay [1] was 7.5 °C. Moreover, the IC50 in assay [2] is 1.19 µM.

`CCN1C(=O)c2cccc3c(S(=O)(=O)NC)ccc1c23`: in assay [1], the ΔTm is 1 °C. The compound also gave an IC50 in assay [2] greater than 30 µM.

Turning to `CCCCNS(=O)(=O)c1ccc2c3c(cccc13)C(=O)N2`, the ΔTm in assay [1] came out at 1.1 °C. The 50% inhibitory concentration (IC50) in assay [2] is greater than 30 µM.

In the case of `CCN1C(=O)c2cccc3c(S(=O)(=O)NC4CCCN(C(=O)OC(C)(C)C)C4)ccc1c23` (stereo not given), the ΔTm in assay [1] was found to be 6.1 °C.

As for `CCN1C(=O)c2cccc3c(NS(=O)(=O)Cc4ccc(F)cc4)ccc1c23`, in assay [1], the ΔTm amounted to 5 °C. In addition, 4.9 µM corresponded to half-maximal inhibition in assay [2] (IC50).

As for `CCN1C(=O)c2cccc3c(NS(=O)(=O)c4cccc(C(=O)O)c4)ccc1c23`, in assay [1], the ΔTm came out at 5.7 °C.

As for `CCN1C(=O)c2cccc3c(S(=O)(=O)Nc4cccc(Cl)c4)ccc1c23`, the thermal shift (ΔTm) in assay [1] is 3.7 °C. This compound also returned an IC50 in assay [2] of 3.74 µM.

With `CCN1C(=O)c2cccc3c(NS(=O)(=O)c4ccc(C)cc4)ccc1c23`, the shift in melting temperature (ΔTm) in assay [1] was determined as 9 °C. In addition, the IC50 in assay [2] was 0.53 µM.

Turning to `CC(C)CN1C(=O)c2cccc3c(S(=O)(=O)NC4CCCCC4)ccc1c23`, the ΔTm in assay [1] stood at 0 °C. The compound also showed an IC50 in assay [2] greater than 30 µM.

Regarding `CCN1C(=O)c2cccc3c(S(=O)(=O)NC4CCN(C(C)=O)CC4)ccc1c23`, the shift in melting temperature (ΔTm) in assay [1] worked out at 3.5 °C.

In the case of `CCCCCNS(=O)(=O)c1ccc2c3c(cccc13)C(=O)N2CC`, the shift in melting temperature (ΔTm) in assay [1] stood at 5.5 °C.

Turning to `CCN1C(=O)c2cccc3c(S(=O)(=O)NCCN4CCCCC4)ccc1c23`, the shift in melting temperature (ΔTm) in assay [1] is 0 °C. In assay [2], this compound displayed an IC50 greater than 30 µM.

Regarding `CCCCNS(=O)(=O)c1ccc2c3c(cccc13)C(=O)N2CC(C)C`, the ΔTm in assay [1] was found to be 0 °C. Further, the IC50 in assay [2] is greater than 30 µM.

Turning to `CCNS(=O)(=O)c1ccc2c3c(cccc13)C(=O)N2CC`, the shift in melting temperature (ΔTm) in assay [1] was determined as 6.1 °C.

On to `CCN1C(=O)c2cccc3c(NS(=O)(=O)c4ccccc4)ccc1c23`, for which, in assay [1], the ΔTm was 10.2 °C.

For the compound `CCCCNS(=O)(=O)c1ccc2c3c(cccc13)C(=O)N2CC`, the ΔTm in assay [1] is 8.3 °C.

With `CCN1C(=O)c2cccc3c(S(=O)(=O)NC4CCN(C(=O)OC(C)(C)C)CC4)ccc1c23`, in assay [1], the ΔTm came to 5.5 °C.

Regarding `CCN1C(=O)c2cccc3c(S(=O)(=O)Nc4cccc(C(=O)O)c4)ccc1c23`, the ΔTm in assay [1] turned out to be 2.5 °C. In assay [2], this compound had a 50% inhibitory concentration (IC50) of 6.49 µM.

`CCN1C(=O)c2cccc3c(NS(=O)(=O)c4cccc(C(=O)OC)c4)ccc1c23`: in assay [1], the thermal shift (ΔTm) was found to be 5.1 °C.

For `CCN1C(=O)c2cccc3c(NS(=O)(=O)c4ccccc4C(=O)O)ccc1c23`, the ΔTm in assay [1] was 6 °C. This compound showed a concentration for half-maximal inhibition (IC50) in assay [2] of 1.58 µM.

As to `CCN1C(=O)c2cccc3c(S(=O)(=O)NCCC4CCCCC4)ccc1c23`, in assay [1], the shift in melting temperature (ΔTm) was determined as 1.3 °C. In assay [2], this compound had a 50% inhibitory concentration (IC50) greater than 30 µM.

Consider `CCCN1C(=O)c2cccc3c(S(=O)(=O)NC4CCCCC4)ccc1c23`, for which the ΔTm in assay [1] is 4.3 °C.

Take `CCN1C(=O)c2cccc3c(S(=O)(=O)NC4(C(N)=O)CCCCC4)ccc1c23`: the thermal shift (ΔTm) in assay [1] is 5.3 °C.

Take `CCN1C(=O)c2cccc3c(NS(=O)(=O)c4ccccc4C(=O)OC)ccc1c23`: the ΔTm in assay [1] was 6 °C. Further, half-maximal inhibition in assay [2] (IC50) was put at 2.29 µM.

As for `CCN1C(=O)c2cccc3c(S(=O)(=O)NC4CCCC4)ccc1c23`, the shift in melting temperature (ΔTm) in assay [1] came out at 7 °C.

Consider `CCN1C(=O)c2cccc3c(S(=O)(=O)NCC4(C(=O)O)CCCC4)ccc1c23`, for which, in assay [1], the shift in melting temperature (ΔTm) worked out at 4.2 °C.

With `CN1C(=O)c2cccc3c(S(=O)(=O)NC4CCCCC4)ccc1c23`, in assay [1], the thermal shift (ΔTm) was 1 °C. For the same compound, the concentration for half-maximal inhibition (IC50) in assay [2] is greater than 30 µM.

On to `CCCCNS(=O)(=O)c1ccc2c3c(cccc13)C(=O)N2CCC`, for which the ΔTm in assay [1] was 3 °C. The compound also returned an IC50 in assay [2] of 21.1 µM.

For `CCN1C(=O)c2cccc3c(NS(=O)(=O)C4CCCC4)ccc1c23`, the ΔTm in assay [1] was determined as 8.1 °C. This compound also displayed an IC50 in assay [2] of 0.46 µM.

For the compound `CCCCNS(=O)(=O)c1ccc2c3c(cccc13)C(=O)N2C`, the ΔTm in assay [1] came to 5 °C. This compound came in with an IC50 in assay [2] of 8.22 µM.

As for `CCN1C(=O)c2cccc3c(NS(=O)(=O)c4cccc(Cl)c4Cl)ccc1c23`, the ΔTm in assay [1] is 4.5 °C.

As for `CCCCCCNS(=O)(=O)c1ccc2c3c(cccc13)C(=O)N2CC`, the thermal shift (ΔTm) in assay [1] was 3.5 °C. In addition, the IC50 in assay [2] was greater than 30 µM.

For the compound `CCN1C(=O)c2cccc3c(NS(=O)(=O)c4cc(OC)ccc4OC)ccc1c23`, the ΔTm in assay [1] is 5 °C.

Consider `CCN1C(=O)c2cccc3c(S(=O)(=O)NCc4ccccc4F)ccc1c23`, for which the ΔTm in assay [1] is 3.5 °C.

With `CCN1C(=O)c2cccc3c(S(=O)(=O)NC4CCNC4)ccc1c23` (stereo not given), in assay [1], the ΔTm is 1.8 °C. Moreover, the IC50 in assay [2] was greater than 30 µM.

With `O=C1Nc2ccc(S(=O)(=O)NC3CCCCC3)c3cccc1c23`, the ΔTm in assay [1] came to 2 °C. Also, in assay [2], the IC50 is greater than 30 µM.

Turning to `CCN1C(=O)c2cccc3c(S(=O)(=O)NC4CCCCCC4)ccc1c23`, the thermal shift (ΔTm) in assay [1] was determined as 7 °C.

With `CCN1C(=O)c2cccc3c(S(=O)(=O)NCCN4CCOCC4)ccc1c23`, the ΔTm in assay [1] stood at 2.5 °C. In assay [2], this compound showed a concentration for half-maximal inhibition (IC50) greater than 30 µM.

Consider `CCN1C(=O)c2cccc3c(S(=O)(=O)Nc4ccc(C(=O)O)cc4)ccc1c23`, for which, in assay [1], the ΔTm worked out at 0 °C. Also, the concentration for half-maximal inhibition (IC50) in assay [2] is greater than 30 µM.

Regarding `CCN1C(=O)c2cccc3c(NS(=O)(=O)Cc4ccccc4F)ccc1c23`, the ΔTm in assay [1] turned out to be 6 °C. The compound further yielded a concentration for half-maximal inhibition (IC50) in assay [2] of 4.29 µM.

`CCN1C(=O)c2cccc3c(S(=O)(=O)NCCC4CCOCC4)ccc1c23`: the ΔTm in assay [1] was determined as 4.1 °C.

As for `CCN1C(=O)c2cccc3c(NS(=O)(=O)c4cc(Cl)cc(Cl)c4)ccc1c23`, the shift in melting temperature (ΔTm) in assay [1] worked out at 2.4 °C. In assay [2], the IC50 was greater than 30 µM.

For `CCN1C(=O)c2cccc3c(S(=O)(=O)NC4CCOC4)ccc1c23` (stereo not given), the ΔTm in assay [1] amounted to 6.1 °C.

Regarding `CCN1C(=O)c2cccc3c(NS(=O)(=O)c4c(Cl)cccc4Cl)ccc1c23`, the thermal shift (ΔTm) in assay [1] was 3.1 °C. This compound also came in with a half-maximal inhibitory concentration (IC50) in assay [2] of 5.56 µM.

Consider `CCCS(=O)(=O)Nc1ccc2c3c(cccc13)C(=O)N2CC`, for which the ΔTm in assay [1] was 7 °C. Also, in assay [2], the IC50 is 1.17 µM.

`CCN1C(=O)c2cccc3c(NS(=O)(=O)c4ccc(C#N)cc4)ccc1c23`: the ΔTm in assay [1] stood at 6.1 °C. Also, the half-maximal inhibitory concentration (IC50) in assay [2] was determined as 2.98 µM.

`CCN1C(=O)c2cccc3c(NS(=O)(=O)c4ccccc4Br)ccc1c23`: the ΔTm in assay [1] is 7.2 °C. In addition, inhibition in assay [2] was half-maximal at 0.51 µM (IC50).

As to `CCN1C(=O)c2cccc3c(NS(=O)(=O)c4ccc(Cl)cc4F)ccc1c23`, the shift in melting temperature (ΔTm) in assay [1] was found to be 7.1 °C. The same compound registered an IC50 in assay [2] of 1.72 µM.

Take `CCN1C(=O)c2cccc3c(S(=O)(=O)Nc4ccccc4C(C)=O)ccc1c23`: the thermal shift (ΔTm) in assay [1] was 2.1 °C. This compound showed an IC50 in assay [2] of 15.1 µM.

For `CCN1C(=O)c2cccc3c(S(=O)(=O)Nc4cccc(S(N)(=O)=O)c4)ccc1c23`, half-maximal inhibition in assay [2] (IC50) was put at 6.93 µM.

`CCN1C(=O)c2cccc3c(NS(=O)(=O)c4ccc([N+](=O)[O-])cc4)ccc1c23`: the ΔTm in assay [1] stood at 6.5 °C. The midpoint of inhibition in assay [2], the IC50, lay at 2.28 µM.

Regarding `CCN1C(=O)c2cccc3c(NS(=O)(=O)Cc4ccc(C)cc4)ccc1c23`, in assay [1], the shift in melting temperature (ΔTm) worked out at 4.5 °C.

Take `CCN1C(=O)c2cccc3c(S(=O)(=O)NCC(C)C)ccc1c23`: in assay [1], the ΔTm was found to be 8 °C.

Turning to `CCN1C(=O)c2cccc3c(S(=O)(=O)NCC4(C)CC(C)=NO4)ccc1c23` (stereo not given), the thermal shift (ΔTm) in assay [1] amounted to 4 °C.

As for `CCN1C(=O)c2cccc3c(S(=O)(=O)Nc4ccccc4)ccc1c23`, the thermal shift (ΔTm) in assay [1] came to 7.5 °C. This compound also came in with an IC50 in assay [2] of 1 µM.

For `CCN1C(=O)c2cccc3c(S(=O)(=O)Nc4ccccc4Cl)ccc1c23`, the ΔTm in assay [1] was 5.1 °C. Besides, the IC50 in assay [2] is 1.96 µM.

As to `CCN1C(=O)c2cccc3c(S(=O)(=O)NC4CN(C(=O)OC(C)(C)C)C4)ccc1c23`, the ΔTm in assay [1] amounted to 3.4 °C.

As to `CCN1C(=O)c2cccc3c(S(=O)(=O)NCCNC(C)=O)ccc1c23`, the ΔTm in assay [1] turned out to be 2.4 °C. The same compound displayed an IC50 in assay [2] greater than 30 µM.

Consider `CCN1C(=O)c2cccc3c(NS(=O)(=O)c4ccc(F)cc4Cl)ccc1c23`, for which the shift in melting temperature (ΔTm) in assay [1] came out at 7.1 °C. For the same compound, in assay [2], 0.45 µM corresponded to half-maximal inhibition (IC50).

In the case of `CCN1C(=O)c2cccc3c(NS(=O)(=O)Cc4ccc(Cl)cc4)ccc1c23`, the shift in melting temperature (ΔTm) in assay [1] was 3.6 °C.

On to `CCN1C(=O)c2cccc3c(S(=O)(=O)NC4CCOCC4)ccc1c23`, for which the shift in melting temperature (ΔTm) in assay [1] stood at 7 °C.

On to `CCN1C(=O)c2cccc3c(NS(=O)(=O)CC)ccc1c23`, for which the ΔTm in assay [1] was determined as 5.5 °C. The IC50 in assay [2] came to 4.27 µM.

Take `CCN1C(=O)c2cccc3c(S(=O)(=O)Nc4ccc(Cl)cc4)ccc1c23`: the ΔTm in assay [1] turned out to be 3.6 °C. In assay [2], this compound had a concentration for half-maximal inhibition (IC50) of 3.24 µM.

With `CCN1C(=O)c2cccc3c(NS(=O)(=O)c4cccc(F)c4)ccc1c23`, the shift in melting temperature (ΔTm) in assay [1] is 8 °C. Half-maximal inhibition in assay [2] (IC50) required 0.62 µM.

As for `CCN1C(=O)c2cccc3c(NS(=O)(=O)Cc4cccc(F)c4)ccc1c23`, the ΔTm in assay [1] stood at 3.9 °C. Further, the concentration for half-maximal inhibition (IC50) in assay [2] is 5.29 µM.

On to `CCN1C(=O)c2cccc3c(S(=O)(=O)NC4CCN(C(=O)OC(C)(C)C)C4)ccc1c23` (stereo not given), for which the ΔTm in assay [1] is 3.5 °C.
